Data from patent US20240182475A1 (Université de Lausanne, priority 2021, published 2024).

What was measured:
[1] = molecular target: T1, recombinant human CSE (hCSE) (Homo sapiens, UniProt P32929); assay: High-throughput screening pyruvate assay for CSE activators; assay type: biochemical; details: 5 μM; % of pyruvate generated over hCSE alone
T1 construct: purchased ProteoGenix, France
Protocol: The chemical reactions involved in the 2 step assay are depicted. In (a) recombinant human CSE (hCSE) is incubated with L-cysteine, generating H2S and pyruvate. In (b) pyruvate is oxidized by pyruvate oxidase (PDX) to generate acetate, carbon dioxide (CO2) and hydrogen peroxide (H2O2). H2O2 then reacts with Amplex Red in a 1:1 stoichiometry to form the red fluorescent product, resorufin. (c) hCSE-dependent pyruvate measurement without enzyme (no pyruvate production), with the specific CSE inhibitor AVG 5 μM (inhibition of pyruvate production) and with the CSE activator calmodulin 5 μM (increased pyruvate production). Results were expressed as the % of pyruvate generated over hCSE alone. (d) Chemical structure of the new small molecule CSE activator SU004. (e) CSE-dependent pyruvate upon incubation of hCSE with L-cysteine and with increasing concentration of SU004. The ability of SU004 to activate hCSE was calculated as % of normalized activity.
We therefore hypothesized that potential CSE activators could counter these effects and be of therapeutic value in musculoskeletal HC. We set up a screening assay with human recombinant CSE (hCSE) and L-Cysteine as substrate, using as read-out the production of pyruvate as a surrogate of H2S production. As expected, pyruvate was detected only in presence of hCSE. […]

MOVAS cells [2] = assay: MOVAS cell calcification assay (Alizarin red); assay type: cell-based, mouse; details: Mus musculus, MOVAS, read-out: Calcification assay Max calcification inhibition (%) at the indicated dose of compound
Protocol: A) Alizarin red staining of MOVAS cells stimulated with sCPP for 24 h in DMEM+10% FBS and treated or not with 50 uM of compounds. […] Statistical analysis was determined using one-way ANOVA with ***p<0.001. C) Percentage of cytotoxicity (LDH %) in MOVAS treated or not with compounds for 24 h. D) MOVAS cells were seeded onto half-area 96-well plate and incubated overnight. Then C5 or C6 at 50 uM or vehicle (DMSO), L-cysteine at 10 mM, PLP at 5 uM and the H2S sensitive fluorescent probe AzMC at 10 μM were added. The fluorescence was immediately measured in kinetic mode for 2 h at 37° C. with SpectraMax M5 reader, with excitation and emission wavelengths of 365 nm and 450 nm, respectively.
A) Alizarin red staining of Movas cells stimulated with sCPP for 24 h in DMEM+10% FBS and treated or not with 50 uM of Z20. […] C) Percentage of cytotoxicity (LDH %) in murine chondrocytes treated or not with Z20 for 24 h. Statistical analysis was determined using one-way ANOVA with ***p<0.001.
Alizarin red staining of MOVAS cells stimulated with sCPP for 24 h in DMEM+10% FBS and treated or not with different concentrations of compounds (A: C6) and (B: Z20). The graphs show Alizarin red absorbance at 570-630 nm. Statistical analysis was determined using one-way ANOVA with *p<0.05, **p<0.01, ***p<0.001.
CPP were generated by preparing 20 ml DMEM containing 10% FBS, 1 mmol/L CaCl2, 3.5 mmol/L inorganic phosphate (1.36 mmol/L NaH2PO4 and 2.14 mmol/L Na2HPO4) (Aghagolzadeh et al. Atherosclerosis, 2016). After 7 days incubation at 37° C., the suspension was centrifuged at 25000 g for 2 h at 4° C., and the pellet containing CPP was resuspended in 1 ml DMEM and stored at −20° C. until further use.
Mouse vascular smooth muscle cell line (MOVAS) cells were cultured according to the manufacturer's guidelines in DMEM culture medium supplemented with 10% FBS. Cells were cultured at 37° C. in a humidified atmosphere with 5% CO2. All cell culture experiments in 96-well plates were performed in triplicates and were repeated independently two times.
For calcification experiments, cells were seeded in 96-well plates at a density of 50,000 cells/well and left to attach for 18 h. Calcification of cell monolayers was induced by CPP (equivalent to 50 μg Ca/mL) for 24 h at 37° C., 5% CO2 in presence of various concentrations of compounds (all in final 0.1% DMSO), or of 0.1% DMSO as a control, to reach a final volume of 200 μl/well. Calcium deposition was assessed by 0.5% w/v Alizarin Red staining (pH 4.2). Briefly, after PBS washing, methanol fixation for 10 min at 4° C., and milli-Q water washing, cells were incubated for 60 min with 200 μL Alizarin Red solution and then washed four times with milli-Q water. Quantification was performed after crystal dissolution with cetylpyridinium chloride (10%) for 18 h. The absorbance was measured at 570 and 630 nm using the Spectramax M5e reader (Molecular Devices). The background (alizarin red staining obtained with cells in the absence of CPP) was subtracted from all values.

recombinant human CSE = recombinant human CSE (Homo sapiens, UniProt P32929); assay: CSE activity (AzMC probe assay), H2S production by recombinant human CSE; assay type: biochemical; details: for CSE activity (AZMC probe assay) % of activation: (RFU compound max - RFU compound 0/RFU CSE 2 ug - RFU compound 0)*100; for EC50: EC50 calculated by the four-parameter logistic model
Protocol: The activity of recombinant human CSE (rCSE) was tested in the presence of C5, compound 8 (50 uM), Z20 compound 13 (50 uM) or vehicle (DMSO). Briefly, compounds were added in reaction buffer (50 mM Tris-HCl, pH 8) containing 2 μg of rCSE, 10 mM CSE substrate L-cysteine, 5 uM pyridoxal 5′-phosphate (PLP). After addition of 10 μM of the H2S sensitive fluorescent probe 7-azido-4-methylcoumarin (AzMC) in a total volume of 100 μl, fluorescence was immediately measured in kinetic mode for 2 h at 37° C. with SpectraMax M5 reader, with excitation and emission wavelengths of 365 nm and 450 nm, respectively. Statistical analysis was determined using simple linear regression with p<0.0001 for C5 vs. vehicle and p<0.0002 for Z20 vs. vehicle.
Recombinant human CSE (1 μg/well) was incubated with various concentrations of compounds (all in final 0.1% DMSO), or with 0.1% DMSO as a control, in 10 mM sodium phosphate buffer pH 8.2. Next, 10 mM L-cysteine and 1 mM PLP and 10 μM of the probe AzMC were then added to reach 100 μL total volume. Fluorescence was measured for 3 h at 37° C. with excitation and emission wavelengths of 365 nm and 450 nm, respectively, in a 96-well half area black plate with transparent bottom.
Dose-response curve of each compound was performed, using triplicate wells for each tested doses. The background (10 mM sodium phosphate buffer with L-cysteine, PLP and AzMC) was subtracted from all values. Each mean value was converted to percent activity (0% defined as the smallest mean in each data set, 100% defined as the highest mean in each data set). The data were normalized using the four parameter logistic model (4PL) equation to calculate EC50 using GraphPad Prism.

MOVAS cells [3] = assay: Cytotoxicity assay, LDH release; assay type: cell-based, mouse
Protocol: A) Alizarin red staining of MOVAS cells stimulated with CPP for 24 h in DMEM+10% FBS in presence of different concentrations of compound 22401. […] The background (Alizarin red staining obtained with cells in the absence of CPP) was subtracted from all values. B) Percentage of cytotoxicity, as measured by LDH release, in MOVAS cells in the same conditions as A). Statistical analysis was determined using one-way ANOVA with *p<0.05, **p<0.01, ***p<0.001.
Measurement of lactate dehydrogenase (LDH) as a means of cytotoxicity assay was performed with using CytoTox-ONE Homogeneous Membrane Integrity Assay (Promega) according to the manufacturer's instructions. Values were calculated as percentage of cytotoxicity using the following formula: [(value in sample)−(background)]/[(value in Triton X-100-treated sample)−(background)]×100.

[4] = test system: WT murine primary chondrocytes; assay: Murine primary chondrocyte calcification (Alizarin red); assay type: cell-based, mouse; details: WT chondrocytes incubated with 100 μM or 25 μM
Protocol: (a) WT and Cse-deficient chondrocytes were incubated with a CSE activator (SU004, 50 μM) previously identified by high-through put screen, or with the equivalent volume of DMSO (0.1%) for 24 hours in calcification medium. STS 25 mM was used as a positive control for calcification inhibition. Calcium-containing crystals were stained with Alizarin red and quantified. (b) Cytotoxicity was assessed by LDH measurement and expressed as % over 100% cytotoxicity. (c) IL-6 secretion was measured by ELISA in supernatant of WT chondrocytes incubated with SU004 50 μM or STS 25 mM for 24 hours in calcification medium. (d) Primary human chondrocytes from 3 OA patients (P1, P2, P3) were incubated with SU004 50 μM, or with the equivalent volume of DMSO (0.1%) for 24 hours in calcification medium. Calcium-containing crystals were stained with Alizarin red and quantified. (e) Cytotoxicity was assessed by LDH measurement and expressed as % over 100% cytotoxicity. (f) IL-6 secretion was measured by ELISA in supernatant of human chondrocytes incubated for 24 hours with SU004 50 μM in calcification medium. *p<0.05, ** p<0.01, ****p<0.0001.
Primary murine chondrocytes were stimulated with secondary calciprotein particles (sCPP) for 24 h in DMEM+10% FBS in presence of C5 or C6 at 50 uM or vehicle (DMSO). Mineralization was analyzed by Alizarin red staining of the cells (A) and quantified (B). Statistical analysis was determined using one-way ANOVA with **p<0.01 and ***p<0.001.
Chondrocytes were isolated from 6 days old mice (Cse KO, Cse tg, Cbs KO and corresponding WT mice) as described previously (Nasi, So, et al. 2016). Tenocytes were isolated from 6 to 8 weeks old mice (Cse KO and WT) and by double digestion in Collagenase IV NB standard grade (Witec AG). […]
After incubation in calcification media, supernatant was collected for ELISA and LDH measurement, and cell monolayer was washed in PBS, fixed in 10% formol and crystal deposition analyzed through Alizarin red staining and quantified as previously described

Chain of recombinant human CSE (P32929 whole entry): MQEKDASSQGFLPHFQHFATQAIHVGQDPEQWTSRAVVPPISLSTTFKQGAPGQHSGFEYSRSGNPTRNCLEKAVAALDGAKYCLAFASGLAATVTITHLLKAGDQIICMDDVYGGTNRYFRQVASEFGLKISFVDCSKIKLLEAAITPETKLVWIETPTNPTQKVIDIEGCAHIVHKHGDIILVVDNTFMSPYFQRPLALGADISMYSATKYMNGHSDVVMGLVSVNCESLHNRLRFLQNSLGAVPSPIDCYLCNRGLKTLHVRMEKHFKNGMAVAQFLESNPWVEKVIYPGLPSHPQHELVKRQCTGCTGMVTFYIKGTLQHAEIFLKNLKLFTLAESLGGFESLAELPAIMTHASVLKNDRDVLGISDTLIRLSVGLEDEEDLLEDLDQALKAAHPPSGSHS
T1 sequence (P32929 whole entry): as above

| Compound | hCSE-dependent pyruvate production [1] | CSE activity (AZMC probe assay) % of activation (recombinant human CSE) [%] | EC50 (recombinant human CSE) [nM] | other results |
| --- | --- | --- | --- | --- |
| NCCO/C=C/C(N)C(=O)O (stereo not drawn) [AVG] | almost complete inhibition | – | – | – |
| O=C(Nc1cnn(CC2CCCO2)c1)c1cccc2[nH]ccc12 (stereo not drawn) [Compound 44, N-(1-((tetrahydrofuran-2-yl)methyl)-1H-pyrazol-4-yl)-1H-indole-4-carboxamide] | – | 73 | 29 | inhibition at 0.3 µM (MOVAS cells [2]; at 0.3 uM): 37%; Cytotoxicity assay LDH release (% of cytotoxicity) (MOVAS cells [3]; at 0.3 uM): 12% at |
| N[C@@H](CCS)C(=O)O [homocysteine, reference compound] | – | – | – | Calcification [4]: significantly decreased |

Further lines, with some results ahead:

| hCSE-dependent pyruvate production [1] | CSE activity (AZMC probe assay) % of activation (recombinant human CSE) [%] | EC50 (recombinant human CSE) [nM] | Compound | other results |
| --- | --- | --- | --- | --- |
| – | 59 | 39.6 | N#Cc1cccc(C(=O)Nc2cnn(CC3CCCO3)c2)c1 (stereo not drawn) [Compound 45, 3-cyano-N-(1-((tetrahydrofuran-2-yl)methyl)-1H-pyrazol-4-yl)benzamide] | inhibition at 5 µM (MOVAS cells [2]; at 5 uM): 57%; Cytotoxicity assay LDH release (% of cytotoxicity) (MOVAS cells [3]; at 5 uM): 12% at |
| – | 106 | 38.9 | CCn1cnc2c(Nc3cnn(CCOC)c3)ncnc21 [Compound 47, 9-ethyl-N-(1-(2-methoxyethyl)-1H-pyrazol-4-yl)-9H-purin-6-amine] | inhibition at 20 µM (MOVAS cells [2]; at 20 uM): 37%; Cytotoxicity assay LDH release (% of cytotoxicity) (MOVAS cells [3]; at 20 uM): 25% at |
| pyruvate up-modulation | – | – | calmodulin | – |
